Measured values: ChEMBL document CHEMBL3044825, “Synthesis and in vitro microbial activities of amides of pyridoquinolone” (2011)

Key:
Format in all cases: functional
Settings in all cases: read-out: IZ
[1] = test system: Staphylococcus aureus; test: Antibacterial activity against Staphylococcus aureus at 100 ug/ml by cup-plate method
[2] = test system: Candida albicans; test: Antifungal activity against Candida albicans at 100 ug/ml by cup-plate method
[3] = test system: Pseudomonas aeruginosa; test: Antibacterial activity against Pseudomonas aeruginosa at 100 ug/ml by cup-plate method
[4] = test system: Escherichia coli; test: Antibacterial activity against Escherichia coli at 100 ug/ml by cup-plate method
[5] = test system: Bacillus subtilis; test: Antibacterial activity against Bacillus subtilis at 100 ug/ml by cup plate method

SMILES	zone of inhibition at 100 µg/mL [1]	zone of inhibition at 100 µg/mL [2]	zone of inhibition at 100 µg/mL [3]	zone of inhibition at 100 µg/mL [4]	zone of inhibition at 100 µg/mL [5]
O=C(Nc1ccc([N+](=O)[O-])cc1)c1cn(CCO)c2c(cc(O)c3ncccc32)c1=O	8 mm	0 mm	6 mm	6 mm	7 mm
COc1ccccc1NC(=S)NC(=O)c1cn(CCO)c2c(cc(Cl)c3ncccc32)c1=O	0 mm	0 mm	3 mm	5 mm	6 mm
O=C(Nc1cccc([N+](=O)[O-])c1)c1cn(CCO)c2c(cc(Cl)c3ncccc32)c1=O	9 mm	3 mm	9 mm	9 mm	6 mm
O=C(NC(=S)Nc1ccc([N+](=O)[O-])cc1)c1cn(CCO)c2c(cc(Cl)c3ncccc32)c1=O	11 mm	5 mm	9 mm	10 mm	12 mm
N#Cc1cc([N+](=O)[O-])ccc1NS(=O)(=O)c1ccc(NC(=O)c2cn(CCO)c3c(cc(O)c4ncccc43)c2=O)cc1	8 mm	2 mm	8 mm	6 mm	6 mm
O=C(NC(=S)Nc1cccc(O)c1)c1cn(CCO)c2c(cc(Cl)c3ncccc32)c1=O	8 mm	2 mm	6 mm	8 mm	9 mm
Cc1ccccc1NS(=O)(=O)c1ccc(NC(=O)c2cn(CCO)c3c(cc(Cl)c4ncccc43)c2=O)cc1	9 mm	3 mm	9 mm	9 mm	10 mm
O=C(Nc1ccccc1[N+](=O)[O-])c1cn(CCO)c2c(cc(O)c3ncccc32)c1=O	10 mm	4 mm	9 mm	9 mm	11 mm
O=C(Nc1ccc(S(=O)(=O)Nc2ccc(Cl)cc2)cc1)c1cn(CCO)c2c(cc(O)c3ncccc32)c1=O	0 mm	0 mm	4 mm	4 mm	6 mm
Cc1ccc(NC(=O)c2cn(CCO)c3c(cc(Cl)c4ncccc43)c2=O)cc1	5 mm	0 mm	5 mm	4 mm	7 mm
Cc1cccc(NS(=O)(=O)c2ccc(NC(=O)c3cn(CCO)c4c(cc(O)c5ncccc54)c3=O)cc2)c1	11 mm	5 mm	11 mm	10 mm	12 mm
O=C(NC(=S)Nc1ccccc1)c1cn(CCO)c2c(cc(Cl)c3ncccc32)c1=O	9 mm	3 mm	9 mm	10 mm	11 mm
Cc1cccc(NS(=O)(=O)c2ccc(NC(=O)c3cn(CCO)c4c(cc(Cl)c5ncccc54)c3=O)cc2)c1	0 mm	0 mm	4 mm	0 mm	6 mm
O=C(NC(=S)Nc1cccc([N+](=O)[O-])c1)c1cn(CCO)c2c(cc(Cl)c3ncccc32)c1=O	8 mm	1 mm	8 mm	0 mm	6 mm
COc1ccc(NS(=O)(=O)c2ccc(NC(=O)c3cn(CCO)c4c(cc(Cl)c5ncccc54)c3=O)cc2)cc1	9 mm	3 mm	10 mm	9 mm	10 mm
Cc1ccc(C)c(NC(=O)c2cn(CCO)c3c(cc(O)c4ncccc43)c2=O)c1	8 mm	2 mm	8 mm	9 mm	9 mm
Cc1ccc(C)c(NS(=O)(=O)c2ccc(NC(=O)c3cn(CCO)c4c(cc(O)c5ncccc54)c3=O)cc2)c1	11 mm	4 mm	11 mm	10 mm	9 mm
Cc1ccc(NC(=S)NC(=O)c2cn(CCO)c3c(cc(O)c4ncccc43)c2=O)cc1	0 mm	1 mm	4 mm	6 mm	6 mm
O=C(NC(=S)Nc1cccc([N+](=O)[O-])c1)c1cn(CCO)c2c(cc(O)c3ncccc32)c1=O	7 mm	0 mm	10 mm	9 mm	7 mm
Cc1ccccc1NC(=O)c1cn(CCO)c2c(cc(O)c3ncccc32)c1=O		0 mm		9 mm	
COc1ccccc1NS(=O)(=O)c1ccc(NC(=O)c2cn(CCO)c3c(cc(Cl)c4ncccc43)c2=O)cc1			5 mm	5 mm	
O=C(NC(=S)Nc1ccccc1)c1cn(CCO)c2c(cc(O)c3ncccc32)c1=O		4 mm	10 mm		
O=C(Nc1ccc(Cl)cc1)c1cn(CCO)c2c(cc(Cl)c3ncccc32)c1=O			6 mm	6 mm	7 mm
C[C@@H]1[C@H](O)[C@@H](C)/C=C/C=C/C=C/C=C/C=C/C=C/C=C/[C@H](O[C@@H]2O[C@H](C)[C@@H](O)[C@H](N)[C@@H]2O)C[C@@H]2O[C@](O)(C[C@@H](O)C[C@@H](O)[C@H](O)CC[C@@H](O)C[C@@H](O)CC(=O)O[C@H]1C)C[C@H](O)[C@H]2C(=O)O [AMPHOTERICIN B]		9 mm			
O=C(Nc1ccccc1)c1cn(CCO)c2c(cc(Cl)c3ncccc32)c1=O	12 mm	5 mm		12 mm	
O=C(Nc1ccccc1[N+](=O)[O-])c1cn(CCO)c2c(cc(Cl)c3ncccc32)c1=O		4 mm			10 mm
O=C(Nc1ccc(Cl)cc1)c1cn(CCO)c2c(cc(O)c3ncccc32)c1=O		5 mm		10 mm	10 mm
O=C(O)c1cn(C2CC2)c2cc(N3CCNCC3)c(F)cc2c1=O [CIPROFLOXACIN]	17 mm		17 mm		16 mm
O=C(NC(=S)Nc1ccccc1[N+](=O)[O-])c1cn(CCO)c2c(cc(Cl)c3ncccc32)c1=O		4 mm		10 mm	9 mm
O=C(Nc1ccc([N+](=O)[O-])cc1)c1cn(CCO)c2c(cc(Cl)c3ncccc32)c1=O		4 mm		9 mm	
